ChEMBL document CHEMBL1159053, “Synthesis and antifungal activities in vitro of novel pyrazino [2,1-a] isoquinolin derivatives” (2010)
Converted amounts (≈) assume the structure as drawn.

Assays:
Assay type in all cases: functional
Trichophyton rubrum = test: Antifungal activity against Trichophyton rubrum by serial dilution method
Candida albicans = test: Antifungal activity against Candida albicans by serial dilution method
Nannizzia gypsea = test: Antifungal activity against Microsporum gypseum by serial dilution method
Aspergillus fumigatus = test: Antifungal activity against Aspergillus fumigatus by serial dilution method
Cryptococcus neoformans = test: Antifungal activity against Cryptococcus neoformans by serial dilution method

Row | Compound | MIC80 (Trichophyton rubrum) [µg/mL] | MIC80 (Candida albicans) [µg/mL] | MIC80 (Nannizzia gypsea) [µg/mL] | MIC80 (Aspergillus fumigatus) [µg/mL] | MIC80 (Cryptococcus neoformans) [µg/mL]
1 | CCCCN1CCN2CCc3cc(O)c(O)cc3C2C1 (stereo not given) | > 64 | > 64 | > 64 | > 64 | 4 (≈ 14.5 µM)
2 | CCCCCCCCN1CCN2CCc3ccc(F)cc3C2C1 (stereo not given) | 8 (≈ 25.1 µM) | 16 (≈ 50.2 µM) | 4 (≈ 12.6 µM) | 32 (≈ 100 µM) | 4 (≈ 12.6 µM)
3 | CCCCCCCCCN1CCN2CCc3ccc(F)cc3C2C1 (stereo not given) | 8 (≈ 24.1 µM) | 8 (≈ 24.1 µM) | 2 (≈ 6.01 µM) | 16 (≈ 48.1 µM) | 4 (≈ 12 µM)
4 | CCCCCCCCCN1CCN2CCc3cc(O)c(O)cc3C2C1 (stereo not given) | 8 (≈ 23.1 µM) | 8 (≈ 23.1 µM) | 8 (≈ 23.1 µM) | 64 (≈ 185 µM) | 4 (≈ 11.5 µM)
5 | CCCCCCCCN1CC(=O)N2CCc3ccc(F)cc3C2C1 (stereo not given) | 16 (≈ 48.1 µM) | > 64 | 16 (≈ 48.1 µM) | 32 (≈ 96.3 µM) | 16 (≈ 48.1 µM)
6 | CCCCCCCCCCCCN1CCN2CCc3cc(O)c(O)cc3C2C1 (stereo not given) | 16 (≈ 41.2 µM) | 64 (≈ 165 µM) | 16 (≈ 41.2 µM) | 64 (≈ 165 µM) | 16 (≈ 41.2 µM)
7 | CCCCCCCCCCCCN1CCN2CCc3ccc(F)cc3C2C1 (stereo not given) | 64 (≈ 171 µM) | > 64 | 4 (≈ 10.7 µM) | > 64 | 64 (≈ 171 µM)
8 | CCCCN1CC(=O)N2CCc3ccc(F)cc3C2C1 (stereo not given) | 64 (≈ 232 µM) | > 64 | > 64 | > 64 | 32 (≈ 116 µM)
9 | OC(Cn1cncn1)(Cn1cncn1)c1ccc(F)cc1F [FLUCONAZOLE] | 32 (≈ 104 µM) | 2 (≈ 6.53 µM) | 2 (≈ 6.53 µM) | > 64 | 4 (≈ 13.1 µM)
10 | CCCCCCCCCCCCN1CC(=O)N2CCc3cc(OC)c(OC)cc3C2C1 (stereo not given) | > 64 | > 64 | 64 (≈ 149 µM) | > 64 | 32 (≈ 74.3 µM)
11 | CCCCCCCCCN1CC(=O)N2CCc3ccc(F)cc3C2C1 (stereo not given) | 4 (≈ 11.5 µM) | 32 (≈ 92.4 µM) | 0.5 (≈ 1.44 µM) | 16 (≈ 46.2 µM) | 2 (≈ 5.77 µM)
12 | CCCCCCCCCN1CCN2CCc3cc(OC)c(OC)cc3C2C1 (stereo not given) | 8 (≈ 21.4 µM) | 32 (≈ 85.4 µM) | 2 (≈ 5.34 µM) | 8 (≈ 21.4 µM) | 4 (≈ 10.7 µM)
13 | CCCCCCCCCCCCN1CCN2CCc3cc(OC)c(OC)cc3C2C1 (stereo not given) | > 64 | > 64 | 32 (≈ 76.8 µM) | > 64 | 16 (≈ 38.4 µM)
14 | CCCCN1CC(=O)N2CCc3cc(OC)c(OC)cc3C2C1 (stereo not given) | > 64 | > 64 | > 64 | > 64 | 16 (≈ 50.2 µM)
15 | CCCCN1CCN2CCc3ccc(F)cc3C2C1 (stereo not given) | > 64 | 64 (≈ 244 µM) | 4 (≈ 15.2 µM) | > 64 | > 64
16 | CCCCCCCCN1CC(=O)N2CCc3cc(OC)c(OC)cc3C2C1 (stereo not given) | 32 (≈ 85.4 µM) | 16 (≈ 42.7 µM) | 8 (≈ 21.4 µM) | 64 (≈ 171 µM) | 8 (≈ 21.4 µM)
17 | CCCCCCCCCN1CC(=O)N2CCc3cc(OC)c(OC)cc3C2C1 (stereo not given) | 32 (≈ 82.4 µM) | 64 (≈ 165 µM) | 2 (≈ 5.15 µM) | 32 (≈ 82.4 µM) | 4 (≈ 10.3 µM)
18 | CCCCCCCCCCN1CCc2cc(O)c(O)cc2C1 | 32 (≈ 105 µM) | 64 (≈ 210 µM) | 16 (≈ 52.4 µM) | 64 (≈ 210 µM) | 16 (≈ 52.4 µM)
19 | CCCCCCCCN1CCN2CCc3cc(O)c(O)cc3C2C1 (stereo not given) | 16 (≈ 48.1 µM) | 16 (≈ 48.1 µM) | 32 (≈ 96.2 µM) | 64 (≈ 192 µM) | 2 (≈ 6.02 µM)
20 | CCCCN1CCN2CCc3cc(OC)c(OC)cc3C2C1 (stereo not given) | > 64 | > 64 | > 64 | > 64 | > 64
21 | CCCCCCCCN1CCN2CCc3cc(OC)c(OC)cc3C2C1 (stereo not given) | 16 (≈ 44.4 µM) | 32 (≈ 88.8 µM) | 4 (≈ 11.1 µM) | 8 (≈ 22.2 µM) | 8 (≈ 22.2 µM)
22 | CCCCCCCCCCCCN1CC(=O)N2CCc3ccc(F)cc3C2C1 (stereo not given) | 64 (≈ 165 µM) | > 64 | 64 (≈ 165 µM) | 32 (≈ 82.4 µM) | > 64
